Measured values as given in the supplement of paper PMC12463676, “Small-molecule dissolution of stress granules by redox modulation benefits ALS models” (Nature Chemical Biology, 2025).

Legend:
potassium arsenate = compound: O=[As]([O-])(O)O.[K+] [potassium arsenate]; assay: thermal stability z-score vs DMSO; higher = more thermally stabilized by treatment; conditions: HeLa; arsenate concentration 1 mM
Method: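 Cellular thermal proteome profiling in HeLa cells treated with 1 mM arsenate for 1 h (DMSO pretreatment), heated to ten temperatures (37-66.3 °C). Soluble protein was quantified by TMT mass spectrometry relative to DMSO controls; the thermal stability score was transformed to a z-score; mean of n = 3 experiments.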

lipoamide = compound: NC(=O)CCCCC1CCSS1 [lipoamide]; assay: as above; conditions: HeLa, lipoamide concentration 100 µM
Method: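 Cellular thermal proteome profiling in HeLa cells. Cells were treated with 100 µM lipoamide for 1 h, with or without 1 mM arsenate for a further 1 h, then heated to ten temperatures (37-66.3 °C), and soluble protein was quantified by TMT mass spectrometry relative to 0.1% DMSO controls. The thermal stability score (sum of log2 fold changes minus the abundance score) was transformed to a z-score; mean of n = 3 experiments.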

[1] = arsenate co-treatment: 1 mM arsenate 1 h
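Also: each temperature applied for 3 min, abundance score taken as mean log2 fold change at the two lowest temperatures, z-score obtained by mean subtraction and division by SD.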

UniProt O75828, sequence (O75828 whole entry): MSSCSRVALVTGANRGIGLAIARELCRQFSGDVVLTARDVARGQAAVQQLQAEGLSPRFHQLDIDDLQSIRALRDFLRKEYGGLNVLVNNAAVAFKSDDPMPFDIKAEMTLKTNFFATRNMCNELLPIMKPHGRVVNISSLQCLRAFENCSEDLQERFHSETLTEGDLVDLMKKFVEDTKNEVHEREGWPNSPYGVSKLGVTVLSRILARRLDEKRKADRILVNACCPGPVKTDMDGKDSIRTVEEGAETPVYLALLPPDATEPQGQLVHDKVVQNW
UniProt Q13557, sequence (Q13557 whole entry): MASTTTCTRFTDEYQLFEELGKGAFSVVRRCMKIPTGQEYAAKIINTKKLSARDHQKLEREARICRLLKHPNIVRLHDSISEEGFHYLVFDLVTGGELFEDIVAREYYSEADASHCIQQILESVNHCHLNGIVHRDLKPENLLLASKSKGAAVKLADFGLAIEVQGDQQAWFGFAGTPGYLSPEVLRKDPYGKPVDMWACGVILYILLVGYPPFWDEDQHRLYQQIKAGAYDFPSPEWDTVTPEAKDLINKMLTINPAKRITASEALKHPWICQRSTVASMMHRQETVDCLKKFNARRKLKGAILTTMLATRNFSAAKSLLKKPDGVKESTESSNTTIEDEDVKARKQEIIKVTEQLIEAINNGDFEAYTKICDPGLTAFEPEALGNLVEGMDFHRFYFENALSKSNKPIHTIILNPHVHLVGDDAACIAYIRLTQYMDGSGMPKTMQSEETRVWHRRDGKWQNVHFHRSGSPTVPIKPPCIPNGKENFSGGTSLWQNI
UniProt Q9HC52, sequence (Q9HC52 whole entry): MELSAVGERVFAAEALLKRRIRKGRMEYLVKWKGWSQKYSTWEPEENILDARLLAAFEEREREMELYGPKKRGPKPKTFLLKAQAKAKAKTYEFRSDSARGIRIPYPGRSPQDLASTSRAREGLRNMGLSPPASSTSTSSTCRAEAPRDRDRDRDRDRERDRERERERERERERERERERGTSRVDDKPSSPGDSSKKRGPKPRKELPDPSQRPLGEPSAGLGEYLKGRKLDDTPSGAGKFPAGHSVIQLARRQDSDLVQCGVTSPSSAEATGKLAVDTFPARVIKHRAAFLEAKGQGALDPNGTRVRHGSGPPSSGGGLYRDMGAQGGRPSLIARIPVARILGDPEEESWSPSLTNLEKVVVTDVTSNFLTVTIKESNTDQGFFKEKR
UniProt P49662, sequence (P49662 whole entry): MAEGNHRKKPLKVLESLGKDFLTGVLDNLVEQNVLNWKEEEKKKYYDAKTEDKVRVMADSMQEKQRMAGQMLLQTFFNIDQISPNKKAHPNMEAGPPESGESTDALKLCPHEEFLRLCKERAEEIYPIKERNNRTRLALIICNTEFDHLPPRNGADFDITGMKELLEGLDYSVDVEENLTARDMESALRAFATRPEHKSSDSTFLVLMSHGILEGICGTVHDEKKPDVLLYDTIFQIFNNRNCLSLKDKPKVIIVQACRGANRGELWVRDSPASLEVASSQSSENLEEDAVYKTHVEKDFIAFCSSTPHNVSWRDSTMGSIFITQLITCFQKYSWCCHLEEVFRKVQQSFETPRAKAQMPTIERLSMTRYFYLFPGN
UniProt Q13951, sequence (Q13951 whole entry): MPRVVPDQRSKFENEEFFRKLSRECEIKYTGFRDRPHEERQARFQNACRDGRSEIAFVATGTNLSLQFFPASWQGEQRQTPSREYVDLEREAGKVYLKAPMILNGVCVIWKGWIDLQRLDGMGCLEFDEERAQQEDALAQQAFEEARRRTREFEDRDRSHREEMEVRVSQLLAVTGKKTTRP
UniProt P42575, sequence (P42575 whole entry): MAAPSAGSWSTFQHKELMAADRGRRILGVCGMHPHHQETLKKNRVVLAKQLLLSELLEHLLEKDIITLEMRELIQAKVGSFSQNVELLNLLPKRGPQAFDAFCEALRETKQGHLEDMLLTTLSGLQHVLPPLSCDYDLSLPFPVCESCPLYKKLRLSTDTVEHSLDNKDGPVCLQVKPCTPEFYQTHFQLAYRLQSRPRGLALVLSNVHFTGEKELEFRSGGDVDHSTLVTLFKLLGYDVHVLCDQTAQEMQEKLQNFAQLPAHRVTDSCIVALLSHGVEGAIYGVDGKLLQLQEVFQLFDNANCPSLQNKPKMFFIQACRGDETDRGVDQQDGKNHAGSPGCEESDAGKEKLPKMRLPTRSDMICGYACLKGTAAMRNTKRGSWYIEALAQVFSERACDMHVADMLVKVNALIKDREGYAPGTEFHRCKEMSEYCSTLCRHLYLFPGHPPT
UniProt Q5T5Y3, sequence (Q5T5Y3 whole entry): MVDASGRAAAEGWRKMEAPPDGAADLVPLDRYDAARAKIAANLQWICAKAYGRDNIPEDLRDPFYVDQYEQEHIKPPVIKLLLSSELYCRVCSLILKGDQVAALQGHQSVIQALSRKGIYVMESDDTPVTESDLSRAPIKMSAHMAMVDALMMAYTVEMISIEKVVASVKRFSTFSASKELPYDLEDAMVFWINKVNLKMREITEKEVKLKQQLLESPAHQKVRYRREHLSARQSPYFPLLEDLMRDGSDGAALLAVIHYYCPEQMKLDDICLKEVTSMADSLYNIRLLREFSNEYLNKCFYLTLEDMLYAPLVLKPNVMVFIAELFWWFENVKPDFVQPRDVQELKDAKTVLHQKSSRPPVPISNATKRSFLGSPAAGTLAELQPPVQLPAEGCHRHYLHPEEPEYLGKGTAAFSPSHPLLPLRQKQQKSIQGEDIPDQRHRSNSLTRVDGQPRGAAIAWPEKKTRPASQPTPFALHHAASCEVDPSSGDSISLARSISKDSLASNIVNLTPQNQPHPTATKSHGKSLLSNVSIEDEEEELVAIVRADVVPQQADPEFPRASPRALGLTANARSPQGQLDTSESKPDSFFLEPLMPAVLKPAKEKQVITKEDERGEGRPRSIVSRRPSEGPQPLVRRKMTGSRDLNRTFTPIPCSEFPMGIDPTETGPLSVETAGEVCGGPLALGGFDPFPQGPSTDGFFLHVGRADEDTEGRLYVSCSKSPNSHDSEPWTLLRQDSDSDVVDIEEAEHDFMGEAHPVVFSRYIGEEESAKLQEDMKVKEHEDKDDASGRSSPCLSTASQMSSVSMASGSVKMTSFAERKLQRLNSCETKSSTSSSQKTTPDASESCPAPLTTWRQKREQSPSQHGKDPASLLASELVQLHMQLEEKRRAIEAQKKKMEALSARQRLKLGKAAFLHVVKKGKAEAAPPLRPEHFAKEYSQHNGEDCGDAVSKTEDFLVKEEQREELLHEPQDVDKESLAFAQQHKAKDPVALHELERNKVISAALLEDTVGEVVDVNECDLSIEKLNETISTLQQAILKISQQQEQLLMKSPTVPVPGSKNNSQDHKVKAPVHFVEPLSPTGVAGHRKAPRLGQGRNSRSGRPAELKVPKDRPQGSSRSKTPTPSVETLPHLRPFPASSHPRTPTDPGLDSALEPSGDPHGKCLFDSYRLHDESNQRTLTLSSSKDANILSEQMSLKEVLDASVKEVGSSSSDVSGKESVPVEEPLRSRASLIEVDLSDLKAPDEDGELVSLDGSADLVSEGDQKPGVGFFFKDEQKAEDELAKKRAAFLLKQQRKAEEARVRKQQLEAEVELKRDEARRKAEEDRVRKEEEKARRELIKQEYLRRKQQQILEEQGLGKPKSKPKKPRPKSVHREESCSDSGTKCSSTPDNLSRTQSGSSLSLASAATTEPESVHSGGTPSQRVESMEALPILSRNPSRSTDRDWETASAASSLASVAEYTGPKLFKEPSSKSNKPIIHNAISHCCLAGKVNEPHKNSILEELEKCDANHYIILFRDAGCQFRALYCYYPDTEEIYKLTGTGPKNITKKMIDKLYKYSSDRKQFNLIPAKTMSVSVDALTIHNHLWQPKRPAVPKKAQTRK
UniProt Q8N163, sequence (Q8N163 whole entry): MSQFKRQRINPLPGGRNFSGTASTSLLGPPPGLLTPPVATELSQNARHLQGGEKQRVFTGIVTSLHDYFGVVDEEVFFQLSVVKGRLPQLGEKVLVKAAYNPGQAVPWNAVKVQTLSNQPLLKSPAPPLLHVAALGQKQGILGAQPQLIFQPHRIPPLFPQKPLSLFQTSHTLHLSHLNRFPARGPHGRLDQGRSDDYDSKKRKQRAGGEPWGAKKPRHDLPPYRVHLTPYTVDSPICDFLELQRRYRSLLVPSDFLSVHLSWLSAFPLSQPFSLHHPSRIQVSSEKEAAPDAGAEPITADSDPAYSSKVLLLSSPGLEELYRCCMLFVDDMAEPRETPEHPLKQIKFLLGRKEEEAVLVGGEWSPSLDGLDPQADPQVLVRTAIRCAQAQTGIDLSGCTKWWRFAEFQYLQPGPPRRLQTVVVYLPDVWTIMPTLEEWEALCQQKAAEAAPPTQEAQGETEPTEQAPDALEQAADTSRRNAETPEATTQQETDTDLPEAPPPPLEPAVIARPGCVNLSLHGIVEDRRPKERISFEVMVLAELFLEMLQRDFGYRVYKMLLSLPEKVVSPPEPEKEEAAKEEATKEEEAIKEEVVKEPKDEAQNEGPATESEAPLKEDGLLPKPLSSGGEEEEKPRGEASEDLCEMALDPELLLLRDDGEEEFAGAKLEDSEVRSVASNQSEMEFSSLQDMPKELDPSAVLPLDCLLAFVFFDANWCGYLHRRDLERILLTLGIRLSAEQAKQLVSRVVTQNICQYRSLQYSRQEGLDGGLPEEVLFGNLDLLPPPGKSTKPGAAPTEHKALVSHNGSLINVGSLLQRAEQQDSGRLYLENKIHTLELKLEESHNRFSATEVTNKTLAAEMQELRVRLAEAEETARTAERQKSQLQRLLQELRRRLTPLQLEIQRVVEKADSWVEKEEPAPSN
UniProt P04632, sequence (P04632 whole entry): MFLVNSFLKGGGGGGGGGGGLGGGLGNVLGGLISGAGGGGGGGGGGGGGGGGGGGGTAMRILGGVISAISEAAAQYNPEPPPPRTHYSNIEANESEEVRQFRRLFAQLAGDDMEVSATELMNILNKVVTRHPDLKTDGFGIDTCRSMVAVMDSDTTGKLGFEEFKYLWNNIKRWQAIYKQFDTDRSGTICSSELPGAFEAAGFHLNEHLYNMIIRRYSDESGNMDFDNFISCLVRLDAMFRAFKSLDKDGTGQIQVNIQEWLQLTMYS

Target	thermal stability z-score (potassium arsenate)	thermal stability z-score (lipoamide; [1])	thermal stability z-score (lipoamide; arsenate co-treatment: none)
CALCOCO1 (UniProt Q9P1Z2)	0.0728	0.179	0.0847
CALCOCO2 (UniProt Q13137)	0.743	0.172	0.108
CALD1 (UniProt Q05682)	0.103	0.261	0.218
CALM1 (UniProt P0DP23)	1.29	3.06	1.53
CALR (UniProt P27797)	0.147	-4.25	-3.48
CALU (UniProt O43852)	0.255	0.0232	0.235
CAMK1D (UniProt Q8IU85)	0.553	-0.513	-0.221
CAMK2D (UniProt Q13557)	-0.0188	0.111	0.215
CAMK2G (UniProt Q13555)	0.174	-0.504	-0.174
CAMKK1 (UniProt Q8N5S9)	4.72	0.776	1.45
CAMKMT (UniProt Q7Z624)	-0.235	0.0977	-0.0333
CAMLG (UniProt P49069)	0.0417	0.508	0.0877
CAMSAP1 (UniProt Q5T5Y3)	-0.293	0.0305	-0.371
CAMSAP2 (UniProt Q08AD1)	-1.05	-0.52	-0.353
CAND1 (UniProt Q86VP6)	-0.122	0.463	0.225
CANT1 (UniProt Q8WVQ1)	-0.0872	0.0524	0.482
CANX (UniProt P27824)	0.851	-3.78	-3.12
CAP1 (UniProt Q01518)	-0.0608	0.524	0.502
CAP2 (UniProt P40123)	0.329	0.00549	-0.126
CAPG (UniProt P40121)	-0.915	0.598	0.158
CAPN1 (UniProt P07384)	-0.369	-0.0396	-0.213
CAPN2 (UniProt P17655)	0.109	0.345	0.208
CAPN7 (UniProt Q9Y6W3)	0.922	0.28	0.65
CAPN15 (UniProt O75808)	-0.24	0.0525	0.0796

Target	thermal stability z-score (potassium arsenate)	thermal stability z-score (lipoamide; [1])	thermal stability z-score (lipoamide; arsenate co-treatment: none)
CAPNS1 (UniProt P04632)	0.0106	0.532	0.582
CAPRIN1 (UniProt Q14444)	0.295	0.381	0.754
CAPZA1 (UniProt P52907)	0.38	-0.236	0.183
CAPZA2 (UniProt P47755)	0.697	-0.00372	0.906
CAPZB (UniProt P47756)	0.454	-0.059	0.144
CARD19 (UniProt Q96LW7)	0.524	0.507	1.37
CARHSP1 (UniProt Q9Y2V2)	-5.57	0.147	0.812
CARM1 (UniProt Q86X55)	0.086	0.99	0.944
CARNMT1 (UniProt Q8N4J0)	0.59	-0.0735	-0.179
CARS2 (UniProt Q9HA77)	-1.39	-0.273	-0.517
CARS (UniProt P49589)	-0.416	-0.705	-0.132
CASC3 (UniProt O15234)	-1.15	0.25	0.544
CASC4 (UniProt Q6P4E1)	0.0247	0.245	0.111
CASC5 (UniProt Q8NG31)	0.219	-0.0952	-0.0158
CASK (UniProt O14936)	-0.0604	0.388	0.281
CASKIN2 (UniProt Q8WXE0)	0.938	-0.798	0.441
CASP1 (UniProt P29466)	-0.416	-1.23	-0.846
CASP2 (UniProt P42575)	-1	-0.172	0.304
CASP3 (UniProt P42574)	-0.737	0.382	-0.0479
CASP4 (UniProt P49662)	0.496	0.133	0.419
CASP6 (UniProt P55212)	0.158	1.05	1.33
CASP7 (UniProt P55210)	-0.753	0.596	0.147
CASP8 (UniProt Q14790)	-0.648	-2.33	-0.106
CAST (UniProt P20810)	0.122	0.525	0.428

Target	thermal stability z-score (potassium arsenate)	thermal stability z-score (lipoamide; [1])	thermal stability z-score (lipoamide; arsenate co-treatment: none)
CAT (UniProt P04040)	0.346	0.883	1.41
CAV1 (UniProt Q03135)	1.02	0.49	0.74
CAV2 (UniProt P51636)	1.51	1.26	-0.268
CBFB (UniProt Q13951)	0.352	-0.0158	-0.159
CBL (UniProt P22681)	-0.368	0.255	0.154
CBLB (UniProt Q13191)	-0.0258	0.338	-0.251
CBR1 (UniProt P16152)	0.879	0.136	0.208
CBR3 (UniProt O75828)	0.282	0.347	-0.0437
CBR4 (UniProt Q8N4T8)	0.168	-0.276	0.0911
CBSL|CBS	0.256	-1.81	-1.33
CBX1 (UniProt P83916)	0.0814	0.402	0.214
CBX3 (UniProt Q13185)	1.76	0.366	0.43
CBX4 (UniProt O00257)	0.529	-0.406	0.212
CBX5 (UniProt P45973)	-0.0201	-0.00136	0.383
CBX8 (UniProt Q9HC52)	-0.0579	0.035	0.14
CC2D1A (UniProt Q6P1N0)	-0.0172	0.117	0.0816
CC2D1B (UniProt Q5T0F9)	-0.125	-0.661	-0.8
CCAR1 (UniProt Q8IX12)	-0.106	0.657	0.27
CCAR2 (UniProt Q8N163)	0.358	-0.42	-0.615
CCBL1|KYAT1	0.447	0.0425	0.343
CCDC6 (UniProt Q16204)	-0.505	-0.497	-0.185
CCDC9 (UniProt Q9Y3X0)	-0.162	1.57	1.4
CCDC12 (UniProt Q8WUD4)	-0.605	0.646	0.397
CCDC18 (UniProt Q5T9S5)	0.0398	0.0532	-0.042
